# Laboratory results published in patent publication US7618960B2, “Morpholine type cinnamide compound” (Eisai R&D Management Co., Ltd., priority 2005, dated 2009).
# pIC50: −log10 of the molar value.
# Tested on: Aβ42 production
# Assay: Quantification of Aβ peptide in culture of neurons from rat fetus brain (Aβ ELISA)
# Type: cell-based
# Details: Neuron, 72 h; rat primary neuronal culture (cerebral cortex, embryonic day 18 Wistar rats); medium collected three days after addition of compound; Aβx-42 ELISA; read-out: Activity for reducing Aβ42 production IC50
# Description: Quantification of Aβ Peptide in Culture of Neurons from Rat Fetus Brain
# (1) Rat Primary Neuronal Culture
# Primary neuronal cultures were prepared from the cerebral cortex of embryonic day 18 Wistar rats (Charles River Japan, Yokohama, Japan). Specifically, the embryos were aseptically removed from pregnant rats under ether anesthesia. The brain was isolated from the embryo and immersed in an ice-cold L-15 medium (Invitrogen Corp. Cat #11415-064, Carlsbad, Calif., USA, or SIGMA L1518, for example). The cerebral cortex was collected from the isolated brain under a stereoscopic microscope. The cerebral cortex fragments collected were enzymatically treated in an enzyme solution containing 0.25% trypsin (Invitrogen Corp. Cat #15050-065, Carlsbad, Calif., USA) and 0.01% DNase (Sigma D5025, St. Louis, Mo., USA) at 37° C. for 30 minutes to disperse the cells. Here, the enzymatic reaction was stopped by adding inactivated horse serum to the solution. The enzymatically treated solution was centrifuged at 1,500 rpm for five minutes to remove the supernatant. 5 to 10 ml of a medium was added to the resulting cell mass. Neurobasal medium (Invitrogen Corp. Cat #21103-049, Carlsbad, Calif., USA) supplemented with 2% B27 supplement (Invitrogen Corp. Cat #17504-044, Carlsbad, Calif., USA), 25 μM 2-mercaptoethanol (2-ME, WAKO Cat #139-06861, Osaka, Japan), 0.5 mM L-glutamine (Invitrogen Corp. Cat #25030-081, Carlsbad, Calif., USA), and Antibiotics-Antimycotics (Invitrogen Corp. Cat #15240-062, Carlsbad, Calif., USA) was used as the medium (Neurobasal/B27/2-ME). However, the above Neurobasal medium not supplemented with 2-ME (Neurobasal/B27) was used for the assay. The cells were redispersed by mild pipetting of the cell mass to which the medium was added. The cell dispersion was filtered through a 40-μm nylon mesh (Cell Strainer, Cat #35-2340, Becton Dickinson Labware, Franklin Lakes, N.J., USA) to remove the remaining cell mass, and thus a neuronal cell suspension was obtained. The neuronal cell suspension was diluted with the medium and then plated in a volume of 100 μl/well at an initial cell density of 5×10^5 cells/cm^2 in a 96-well polystyrene culture plate pre-coated with poly-L or D-lysine (Falcon Cat #35-3075, Becton Dickinson Labware, Franklin Lakes, N.J., USA coated with poly-L-lysine using the method shown below, or BIOCOAT™ cell environments Poly-D-lysine cell ware 96-well plate, Cat #35-6461, Becton Dickinson Labware, Franklin Lakes, N.J., USA). Poly-L-lysine coating was carried out as follows. 100 μg/ml of a poly-L-lysine (SIGMA P2636, St. Louis, Mo., USA) solution was aseptically prepared with a 0.15 M borate buffer (pH 8.5). 100 μl/well of the solution was added to the 96-well polystyrene culture plate and incubated at room temperature for one or more hours or at 4° C. overnight or longer. The coated 96-well polystyrene culture plate was washed with sterile water four or more times, and then dried or rinsed with, for example, sterile PBS or medium, and used for cell plating. The plated cells were cultured in the culture plate at 37° C. in 5% […]-95% air for one day. Then, the total amount of the medium was replaced with a fresh Neurobasal™/B27/2-ME medium, and then the cells were cultured for further three days.
# The drug was added to the culture plate on Day 4 of culture as follows. The total amount of the medium was removed from the wells, and 180 μl/well of Neurobasal medium not containing 2-ME and containing 2% B-27 (Neurobasal/B27) was added thereto. A solution of the test compound in dimethyl sulfoxide (hereinafter abbreviated as DMSO) was diluted with Neurobasal/B27 so that the initial concentration was at 10-fold of the final concentration. 20 μl/well of the dilution was added to and sufficiently mixed with the medium. The final DMSO concentration was 1% or less. Only DMSO was added to the control group.
# The cells were cultured for three days after addition of the compound, and the total amount of the medium was collected. […]
row,Structure (SMILES),pIC50
1,"COc1cc(/C=C2\OC(C)(C)CN([C@@H](C)c3ccnc(Cl)c3)C2=O)ccc1-n1cnc(C)c1 [Example 54, (Z)-4-[(S)-1-(2-chloropyridin-4-yl)ethyl]-2-[1-[3-methoxy-4-(4-methyl-1H-imidazol-1-yl)phenyl]methylidene]-6,6-dimethylmorpholin-3-one]",7.13
2,"COc1cc(/C=C2\OC(C)(C)CN([C@H]3CCOc4ccccc43)C2=O)ccc1-n1cnc(C)c1 [Example 12, (Z)-4-[(S)-chroman-4-yl]-2-[1-[3-methoxy-4-(4-methyl-1H-imidazol-1-yl)phenyl]methylidene]-6,6-dimethylmorpholin-3-one]",7.00
3,"COc1cc(/C=C2\O[C@@H](C)CN([C@@H](C)c3ccc(Cl)nc3)C2=O)ccc1-n1cnc(C)c1 [Example 18, (Z)-(S)-4-[(S)-1-(6-chloropyridin-3-yl)ethyl]-2-[1-[3-methoxy-4-(4-methyl-1H-imidazol-1-yl)phenyl]methylidene]-6-methylmorpholin-3-one]",6.74
4,COc1cc(/C=C2\OC[C@H]3CCC[C@@H](c4cc(F)c(F)c(F)c4)N3C2=O)ccc1-n1cnc(C)c1 [Example 40],7.00
5,"COc1cc(/C=C2\O[C@@H](C)CN([C@@H](C)c3cc(F)nc(F)c3)C2=O)ccc1-n1cnc(C)c1 [Example 53, (Z)-(S)-4-[(S)-1-(2,6-difluoropyridin-4-yl)ethyl]-2-[1-[3-methoxy-4-(4-methyl-1H-imidazol-1-yl)phenyl]methylidene]-6-methylmorpholin-3-one]",7.40
6,"COc1cc(/C=C2\O[C@H](C)CN([C@@H](C)c3ccc(F)cc3)C2=O)ccc1-n1cnc(C)c1 [Example 8, (Z)-(R)-4-[(S)-1-(4-fluorophenyl)ethyl]-2-[1-[3-methoxy-4-(4-methyl-1H-imidazol-1-yl)phenyl]methylidene]-6-methylmorpholin-3-one]",6.95
7,"COc1cc(/C=C2\OC(C)(C)CN([C@H](c3cc(F)c(F)c(F)c3)[C@@H](C)O)C2=O)ccc1-n1cnc(C)c1 [Example 27, (Z)-4-[(1R,2R)-2-hydroxy-1-(3,4,5-trifluorophenyl)propyl]-2-[1-[3-methoxy-4-(4-methyl-1H-imidazol-1-yl)phenyl]methylidene]-6,6-dimethylmorpholin-3-one]",8.30
8,"COc1cc(/C=C2\OC[C@H]3CCC[C@@H](c4ccc(Cl)cc4)N3C2=O)ccc1-n1cnc(C)c1 [Example 107, (6S,9aR)-6-(4-chlorophenyl)-3-{1-[3-methoxy-4-(4-methyl-1H-imidazol-1-yl)phenyl]-(Z)-methylidene}hexahydropyrido[2,1-c][1,4]oxazin-4-one]",7.11
9,"COc1cc(/C=C2\OCCN([C@@H](C)c3cc(F)c(F)c(F)c3)C2=O)ccc1-n1cnc(C)c1 [Example 10, (Z)-2-[1-[3-methoxy-4-(4-methyl-1H-imidazol-1-yl)phenyl]methylidene]-4-[(S)-1-(3,4,5-trifluorophenyl)ethyl]morpholin-3-one]",7.08
10,"COc1cc(/C=C2\O[C@@H](C)CN([C@@H](C)c3ccnc(Cl)c3F)C2=O)ccc1-n1cnc(C)c1 [Example 52, (Z)-(S)-4-[(S)-1-(2-chloro-3-fluoropyridin-4-yl)ethyl]-2-[1-[3-methoxy-4-(4-methyl-1H-imidazol-1-yl)phenyl]methylidene]-6-methylmorpholin-3-one]",7.07
11,"COc1cc(/C=C2\O[C@@H](C)CN([C@H](c3ccc(F)c(F)c3)[C@@H](C)O)C2=O)ccc1-n1cnc(C)c1 [Example 34, (Z)-(S)-4-[(1R,2R)-1-(3,4-difluorophenyl)-2-hydroxypropyl]-2-[1-[3-methoxy-4-(4-methyl-1H-imidazol-1-yl)phenyl]methylidene]-6-methylmorpholin-3-one]",7.64
12,"COc1cc(/C=C2\OC[C@H]3COC[C@@H](c4ccc(Cl)cc4)N3C2=O)ccc1-n1cnc(C)c1 [Example 111, (6R,9aR)-6-(4-chlorophenyl)-3-[1-[3-methoxy-4-(4-methyl-1H-imidazol-1-yl)phenyl]-(Z)-methylidene]tetrahydro[1,4]oxadino[3,4-c]oxadine-4-one]",6.89
13,"COc1cc(/C=C2\O[C@H](C)CN([C@H](c3cc(F)c(F)c(F)c3)[C@@H](C)O)C2=O)ccc1-n1cnc(C)c1 [Example 29, (Z)-(6R)-4-[(1R,2R)-2-hydroxy-1-(3,4,5-trifluorophenyl)propyl]-2-[1-[3-methoxy-4-(4-methyl-1H-imidazol-1-yl)phenyl]methylidene]-6-methylmorpholin-3-one]",7.64
14,"COc1cc(/C=C2\O[C@@H](C)CN(Cc3cc(F)c(F)c(F)c3)C2=O)ccc1-n1cnc(C)c1 [Example 3, (Z)-(S)-2-[1-[3-methoxy-4-(4-methyl-1H-imidazol-1-yl)phenyl]methylidene]-6-methyl-4-(3,4,5-trifluorobenzyl)morpholin-3-one]",7.39
15,"COc1cc(/C=C2\OC(C)(C)CN([C@@H](C)c3ccc(Cl)cn3)C2=O)ccc1-n1cnc(C)c1 [Example 60, (Z)-4-[(S)-1-(5-chloropyridin-2-yl)ethyl]-2-[1-[3-methoxy-4-(4-methyl-1H-imidazol-1-yl)phenyl]methylidene]-6,6-dimethylmorpholin-3-one]",7.02
16,"COc1cc(/C=C2\O[C@@H](C)CN([C@@H](C)c3ccc(F)cc3)C2=O)ccc1-n1cnc(C)c1 [Example 9, (Z)-(S)-4-[(S)-1-(4-fluorophenyl)ethyl]-2-[1-[3-methoxy-4-(4-methyl-1H-imidazol-1-yl)phenyl]methylidene]-6-methylmorpholin-3-one]",7.22
17,"COc1cc(/C=C2\OCCN([C@H](c3ccc(F)c(F)c3)[C@@H](C)O)C2=O)ccc1-n1cnc(C)c1 [Example 31, (Z)-4-[(1R,2R)-1-(3,4-difluorophenyl)-2-hydroxypropyl]-2-[1-[3-methoxy-4-(4-methyl-1H-imidazol-1-yl)phenyl]methylidene]morpholin-3-one]",7.51
18,"COc1cc(/C=C2\O[C@@H](C)CN([C@@H](C)c3ccc(Cl)cn3)C2=O)ccc1-n1cnc(C)c1 [Example 20, (Z)-(S)-4-[(S)-1-(5-chloropyridin-2-yl)ethyl]-2-[1-[3-methoxy-4-(4-methyl-1H-imidazol-1-yl)phenyl]methylidene]-6-methylmorpholin-3-one]",7.09
19,"COc1cc(/C=C2\O[C@@H](C)CN([C@](C)(CO)c3cc(F)c(F)c(F)c3)C2=O)ccc1-n1cnc(C)c1 [Example 36, (Z)-(S)-4-[(S)-2-hydroxy-1-methyl-1-(3,4,5-trifluorophenyl)ethyl]-2-[1-[3-methoxy-4-(4-methyl-1H-imidazol-1-yl)phenyl]methylidene]-6-methylmorpholin-3-one]",6.96
20,"COc1cc(/C=C2\O[C@@H](C)CN([C@@H](C)c3cc(F)c(F)c(F)c3)C2=O)ccc1-n1cnc(C)c1 [Example 37, (Z)-(6S)-2-[1-[3-methoxy-4-(4-methyl-1H-imidazol-1-yl)phenyl]methylidene]-6-methyl-4-[(S)-1-(3,4,5-trifluorophenyl)ethyl]morpholin-3-one]",7.70
21,COc1cc(/C=C2\OC[C@H]3CCC[C@@H](c4ccc(F)c(F)c4)N3C2=O)ccc1-n1cnc(C)c1 [Example 41],6.85
22,"COc1cc(/C=C2\OCCN(Cc3cc(F)c(F)c(F)c3)C2=O)ccc1-n1cnc(C)c1 [Example 1, (Z)-2-[1-[3-methoxy-4-(4-methyl-1H-imidazol-1-yl)phenyl]methylidene]-4-(3,4,5-trifluorobenzyl)morpholin-3-one]",7.11
